Results: patent EP4563149A1, “LURBINECTEDIN, ECUBECTEDIN AND A RELATED COMPOUND FOR USE IN THE TREATMENT OF SKIN CANCERS” (Pharma Mar, S.A., priority 2023, dated 2025)
Read-outs that look alike come from different tables or passages of the source.

Experiments:
[1] = system: 501mel melanoma xenografts; conditions: 1.2 mg/kg intravenous
Experimental: (§1) Female athymic nu/nu mice (Harlan Laboratories Models, S.L. Barcelona, Spain or Envigo, Spain) were utilized for all experiments. Animal were housed in individually ventilated cages Sealsafe® Plus, Techmplast S.P.A.), up to ten per cage on a 12-hour light-dark cycle at 21-23 °C and 40-60 % humidity. Mice were allowed free access to irradiated standard rodent diet (Tecklad 2914C) and sterilized water. Animals were acclimated for at least 5 days prior to tumor implantation with a tumor cell suspension.
(§2) The cell line used are: • 501mel • IGR-37 • SK-Mel-28 • WM-266-4 • LOX-IMVI • 501mel^Vemur
(§3) In xenograft studies with cell lines: • Tumour volume was calculated using the equation […], where a: length (longest diameter) and b: width (shortest diameter) were measured in mm by using digital caliper (Fowler Sylvac, S235PAT). Tumour dimensions and body weights were recorded 2-3 times per week starting from the first day of treatment. • When tumors reached ca. 150-250 mm^3, tumour bearing animals (N = 8-10/group) were randomly allocated into the treatment groups, based on body weight and tumour measurements by using NewLab Oncology Software (version 2.25.06.00). • Comparison between median tumour volume of treated and placebo groups was used for evaluation of the antitumoural efficacy. • Animals were euthanized when their tumours reached ca. 1,500 mm^3 and/or severe necrosis was seen.
(§4) Treatments producing >20 % lethality and/or 20% net body weight loss were considered toxic.
(§5) In these experiments, PM14 and Compound IA, as well as placebo, were intravenously administered once per week for 3 consecutive weeks, on days 0, 7 and 14, whenever it was possible.
Table 4. Tumour volume evaluation in 501mel melanoma xenografts with PM14 and Compound IA and placebo.

Hermes3A = assay: Cell viability assay (PrestoBlue), 72h
Experimental: (§6) Cells were grown at 37°C in 5% CO2 (10% for Hermes 3A) and were regularly checked for mycoplasma contamination. […] Melanoma IGR cell lines (IGR37 and IGR39) were grown in RPMI w/o HEPES (Gibco, Invitrogen) supplemented with 15% FCS and gentamycin.
(§7) To determine the IC50 (half maximal inhibitory concentration) of these cells to various inhibitors, cell viability assays were performed.
(§8) After 72h of treatment with different concentrations of the compounds, cells were treated with PrestoBlue reagent according to the manufacturer's instructions. The absorbance per well was measured with a Cellinsight CX5 microplate reader. Data were analyzed using Prism9 statistical software.

501mel = assay: Cell viability assay (PrestoBlue), 72h; conditions: Homo sapiens
Experimental: (§9) Cells were grown at 37°C in 5% CO2 (10% for Hermes 3A) and were regularly checked for mycoplasma contamination. […] Melanoma cell lines 501mel and SKmel28 were grown in RPMI w/o HEPES (Gibco, Invitrogen) supplemented with 10% FCS and gentamycin. Vemurafenib-resistant cells (501melVemuR and MM074VemuR) were additionally supplemented with 1.5 µM of vemurafenib. Melanoma IGR cell lines (IGR37 and IGR39) were grown in RPMI w/o HEPES (Gibco, Invitrogen) supplemented with 15% FCS and gentamycin.
as §7, §8

[2] = system: Sk-mel-28 melanoma xenografts; conditions: 1.2 mg/kg intravenous
Experimental: as §1, §2, §3, §4, §5
Table 6. Tumour volume evaluation in Sk-mel-28 melanoma xenografts with PM14 and Compound IA and placebo.

MM099 = assay: Cell viability assay (PrestoBlue), 72h; conditions: Homo sapiens
Experimental: as §6, §7, §8

MM074 melanospheres = assay: Melanosphere apoptosis (AnnexinV-APC / propidium iodide); type: cell-based, human; conditions: 72h
Experimental: MM074 proliferative/differentiated cell line were seeded (5×10^4 cells) in ultra-low attachment hydrogel-layered 96 well plates in KO DMEM medium supplemented with 20% KSR, AANE, 2 mM Glutamax, Penicillin/Streptomycin and 100 uM Beta-mercaptoethanol. To allow for melanosphere formation, cells were left to grow for 4 days before drug treatment.
For apoptosis assays with 3D-grown melanoma cells, TrypLe Select 10x reagent (Gibco) was used to dissociate melanospheres to obtain single-cell suspensions. These cells were incubated with AnnexinV-APC (Biolegend) and Propidium Iodide (PI, Biolegend). With bivariant dot plots, it was distinguished between viable (AnnexinV-/PI-), early apoptotic (AnnexinV+/PI-), late apoptotic (AnnexinV+/PI+) and necrotic cells (AnnexinV-/PI+).

MM117 = assay: Cell viability assay (PrestoBlue), 72h; conditions: Homo sapiens
Experimental: as §9, §7, §8

MM074^VemuR = assay: Cell viability assay (PrestoBlue), 72h; conditions: Homo sapiens
Experimental: Cells were grown at 37°C in 5% CO2 (10% for Hermes 3A) and were regularly checked for mycoplasma contamination. MM patient-derived short-term melanoma cultures (MM011, MM074, MM117, MM029, MM047, MM099) were grown in HAM-F10 (Gibco, Invitrogen) supplemented with 10% Fetal Calf Serum (FCS), 25 mM HEPES, 5.2 mM GLUTAMAX and penicillin-streptomycin. Melanoma cell lines 501mel and SKmel28 were grown in RPMI w/o HEPES (Gibco, Invitrogen) supplemented with 10% FCS and gentamycin. Vemurafenib-resistant cells (501melVemuR and MM074VemuR) were additionally supplemented with 1.5 µM of vemurafenib. Melanoma IGR cell lines (IGR37 and IGR39) were grown in RPMI w/o HEPES (Gibco, Invitrogen) supplemented with 15% FCS and gentamycin.
as §7, §8

501 mel^Vemur cell line = conditions: 1.2 mg/kg intravenous
Experimental: as §1, §2, §3, §4, §5

melanoma cells = assay: Cell proliferation by CellTrace Violet flow cytometry; type: cell-based, human; conditions: IC50 concentrations, compared to DMSO
Experimental: After 48h of incubation, cells were rinsed and incubated with AnnexinV-APC (BD Biosciences). Cell proliferation and apoptosis were detected on a BD LSRFortessaTM Flow Cytometer. Data were analyzed with FlowJo software. To define slow proliferating or apoptotic cells: it was considered that slow proliferating cells represented the 30% of cells with the highest concentration of CellTrace Violet signal in the DMSO control. […] For apoptotic cells, it was considered the 20% of cells with the highest signal of AnnexinV-APC in the DMSO control.

all melanoma cells = assay: Cell viability assay (PrestoBlue), summary over all melanoma cells; type: cell-based; conditions: Homo sapiens, read-out: IC50 values
MM011 = assay: Cell viability assay (PrestoBlue), 72h; conditions: Homo sapiens
Experimental: as §9, §7, §8

SKMEL-28 = assay: Cell viability assay (PrestoBlue), 72h; conditions: Homo sapiens, SK-MEL-28, 72 h
Experimental: as §9, §7, §8

[3] = system: xenografts with various melanoma cell lines; conditions: different xenografts, 1.2 mg/kg intravenous once per week for 3 weeks
Experimental: as §1, §2
as §3, with “seen. […]” for “seen.”

## COc1c(C)cc2c(c1O)[C@@H]1[C@@H]3[C@@H]4SC[C@]5(N[C@H](CO)Cc6c5[nH]c5ccccc65)C(=O)OC[C@@H](c5c6c(c(C)c(OC(C)=O)c54)OCO6)N3[C@@H](O)[C@H](C2)N1C [PM14, ecubectedin]
[1]; days 0, 7 and 14, day 0
  Median Tumour Volume: 158.8 mm^3
[1]; days 0, 7 and 14, day 3
  Median Tumour Volume: 215.5 mm^3
[1]; days 0, 7 and 14, day 5
  Median Tumour Volume: 252.3 mm^3
[1]; days 0, 7 and 14, day 7
  Median Tumour Volume: 372.7 mm^3
[1]; days 0, 7 and 14, day 10
  Median Tumour Volume: 503.6 mm^3
[1]; days 0, 7 and 14, day 12
  Median Tumour Volume: 599.4 mm^3
[1]; days 0, 7 and 14, day 14
  Median Tumour Volume: 797.2 mm^3
[1]; days 0, 7 and 14, day 17
  Median Tumour Volume: 950 mm^3
[1]; days 0, 7 and 14, day 19
  Median Tumour Volume: 1,113.5 mm^3
[1]; days 0, 7 and 14, day 21
  Median Tumour Volume: 1,309.8 mm^3
[1]; days 0, 7 and 14, day 24
  Median Tumour Volume: 1,530.7 mm^3
Hermes3A; Hermes3A versus melanoma cells
  sensitivity of non-cancerous Hermes3A immortalized melanocytes compared with the melanoma cells: less sensitive
Hermes3A; Homo sapiens, Melanocyte, 72 h
  IC50: 2.89 nM
501mel
  IC50: 1.25 nM
[2]; days 0, 7 and 14, day 0
  Median Tumour Volume: 152.8 mm^3
[2]; days 0, 7 and 14, day 2
  Median Tumour Volume: 184.4 mm^3
[2]; days 0, 7 and 14, day 4
  Median Tumour Volume: 235.4 mm^3
[2]; days 0, 7 and 14, day 7
  Median Tumour Volume: 326.2 mm^3
[2]; days 0, 7 and 14, day 9
  Median Tumour Volume: 401.5 mm^3
[2]; days 0, 7 and 14, day 11
  Median Tumour Volume: 510.6 mm^3
[2]; days 0, 7 and 14, day 14
  Median Tumour Volume: 632.6 mm^3
[2]; days 0, 7 and 14, day 16
  Median Tumour Volume: 671.9 mm^3
[2]; days 0, 7 and 14, day 18
  Median Tumour Volume: 822.8 mm^3
[2]; days 0, 7 and 14, day 21
  Median Tumour Volume: 884.4 mm^3
[2]; days 0, 7 and 14, day 23
  Median Tumour Volume: 1,012.5 mm^3
[2]; days 0, 7 and 14, day 25
  Median Tumour Volume: 1,204.2 mm^3
[2]; days 0, 7 and 14, day 28
  Median Tumour Volume: 1,516.7 mm^3
MM099
  IC50: 1.41 nM
MM074 melanospheres
  late apoptotic cells positive for Annexin V and propidium iodide: substantial population of late apoptotic cells
MM117
  IC50: 0.72 nM
MM074^VemuR
  IC50: 1.63 nM
501 mel^Vemur cell line; days 0, 7 and 14, day 0
  Median Tumour Volume: 147.9 mm^3
501 mel^Vemur cell line; days 0, 7 and 14, day 2
  Median Tumour Volume: 225.2 mm^3
501 mel^Vemur cell line; days 0, 7 and 14, day 4
  Median Tumour Volume: 248.4 mm^3
501 mel^Vemur cell line; days 0, 7 and 14, day 7
  Median Tumour Volume: 330.4 mm^3
501 mel^Vemur cell line; days 0, 7 and 14, day 9
  Median Tumour Volume: 361 mm^3
501 mel^Vemur cell line; days 0, 7 and 14, day 11
  Median Tumour Volume: 389.7 mm^3
501 mel^Vemur cell line; days 0, 7 and 14, day 14
  Median Tumour Volume: 407.1 mm^3
501 mel^Vemur cell line; days 0, 7 and 14, day 16
  Median Tumour Volume: 436.4 mm^3
501 mel^Vemur cell line; days 0, 7 and 14, day 18
  Median Tumour Volume: 502 mm^3
501 mel^Vemur cell line; days 0, 7 and 14, day 21
  Median Tumour Volume: 555.5 mm^3
501 mel^Vemur cell line; days 0, 7 and 14, day 23
  Median Tumour Volume: 674.2 mm^3
501 mel^Vemur cell line; days 0, 7 and 14, day 25
  Median Tumour Volume: 757.7 mm^3
501 mel^Vemur cell line; days 0, 7 and 14, day 28
  Median Tumour Volume: 839.8 mm^3
501 mel^Vemur cell line; days 0, 7 and 14, day 30
  Median Tumour Volume: 882.9 mm^3
501 mel^Vemur cell line; days 0, 7 and 14, day 35
  Median Tumour Volume: 863.3 mm^3
501 mel^Vemur cell line; days 0, 7 and 14, day 37
  Median Tumour Volume: 871.8 mm^3
501 mel^Vemur cell line; days 0, 7 and 14, day 39
  Median Tumour Volume: 948.6 mm^3
501 mel^Vemur cell line; days 0, 7 and 14, day 42
  Median Tumour Volume: 1020 mm^3
501 mel^Vemur cell line; days 0, 7 and 14, day 44
  Median Tumour Volume: 1,295.1 mm^3
501 mel^Vemur cell line; days 0, 7 and 14, day 46
  Median Tumour Volume: 1,582.2 mm^3
Melanoma cells
  melanoma cell proliferation: significant inhibition
All melanoma cells
  IC50: 0.3 to 4.73 nM
MM011
  IC50: 1.07 nM
SKMEL-28
  IC50: 1.31 nM
[3]
  tumor volume compared to the placebo: reduction of the volume tumor
